Measurements from PubChem BioAssay (NCI).
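Test compounds were applied to cells in 96-well plates for 48 hours at 5 doses. TGI denotes the concentration required for complete inhibition of growth.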

Experiments:
Assay in all cases: growth of human tumour cells (NCI), 48 h
NCI-H23 lung = tested on: NCI-H23 lung
MALME-3M melanoma = tested on: MALME-3M melanoma
HOP-92 NSCLC = tested on: HOP-92 NSCLC
LOX IMVI melanoma = tested on: LOX IMVI melanoma
SF-539 CNS = tested on: SF-539 CNS
K-562 leukemia = tested on: K-562 leukemia
OVCAR-5 ovarian = tested on: OVCAR-5 ovarian
OVCAR-4 ovarian = tested on: OVCAR-4 ovarian
UO-31 renal = tested on: UO-31 renal
EKVX NSCLC = tested on: EKVX NSCLC
T-47D breast = tested on: T-47D breast
M14 melanoma = tested on: M14 melanoma
OVCAR-8 ovarian = tested on: OVCAR-8 ovarian
CAKI-1 renal = tested on: CAKI-1 renal
DU-145 prostate = tested on: DU-145 prostate
MDA-MB-231 breast = tested on: MDA-MB-231 breast
TK-10 renal = tested on: TK-10 renal
SNB-75 CNS = tested on: SNB-75 CNS
CCRF-CEM leukemia = tested on: CCRF-CEM leukemia
SW-620 colon = tested on: SW-620 colon
NCI-H226 lung = tested on: NCI-H226 lung
786-0 renal = tested on: 786-0 renal
KM12 colon = tested on: KM12 colon
U251 CNS = tested on: U251 CNS
MOLT-4 leukemia = tested on: MOLT-4 leukemia
COLO 205 colon = tested on: COLO 205 colon
PC-3 prostate = tested on: PC-3 prostate
SK-OV-3 ovarian = tested on: SK-OV-3 ovarian
HL-60(TB) leukemia = tested on: HL-60(TB) leukemia
OVCAR-3 ovarian = tested on: OVCAR-3 ovarian
MDA-N = tested on: MDA-N
SK-MEL-28 melanoma = tested on: SK-MEL-28 melanoma
NCI/ADR-RES ovarian = tested on: NCI/ADR-RES ovarian
IGROV1 ovarian = tested on: IGROV1 ovarian
UACC-62 melanoma = tested on: UACC-62 melanoma
SK-MEL-5 melanoma = tested on: SK-MEL-5 melanoma
SF-295 CNS = tested on: SF-295 CNS
HCT-116 colon = tested on: HCT-116 colon
HT29 colon = tested on: HT29 colon
HCC-2998 colon = tested on: HCC-2998 colon
SNB-19 CNS = tested on: SNB-19 CNS
MCF7 breast = tested on: MCF7 breast
BT-549 breast = tested on: BT-549 breast
SF-268 CNS = tested on: SF-268 CNS
SK-MEL-2 melanoma = tested on: SK-MEL-2 melanoma
ACHN renal = tested on: ACHN renal
SN12C renal = tested on: SN12C renal
UACC-257 melanoma = tested on: UACC-257 melanoma
HCT-15 colon = tested on: HCT-15 colon
A549 NSCLC = tested on: A549 NSCLC
HS 578T breast = tested on: HS 578T breast
NCI-H522 lung = tested on: NCI-H522 lung
RPMI-8226 leukemia = tested on: RPMI-8226 leukemia
MDA-MB-435 = tested on: MDA-MB-435
NCI-H460 lung = tested on: NCI-H460 lung
HOP-62 NSCLC = tested on: HOP-62 NSCLC
A498 renal = tested on: A498 renal
SR leukemia = tested on: SR leukemia
RXF 393 renal = tested on: RXF 393 renal

## CC12CC3OC(=O)C1COC14OC5(C2C1=O)C(O)(CCC1C4CC(O)C2(O)CC=CC(=O)C12C)C(=O)OC35C (stereo unspecified)
NCI-H23 lung
  TGI: > 100 µM
MALME-3M melanoma
  TGI: > 100 µM
HOP-92 NSCLC
  TGI: > 100 µM
LOX IMVI melanoma
  TGI: > 100 µM
SF-539 CNS
  TGI: > 100 µM
K-562 leukemia
  TGI: > 100 µM
OVCAR-5 ovarian
  TGI: > 100 µM
OVCAR-4 ovarian
  TGI: > 100 µM
UO-31 renal
  TGI: > 100 µM
EKVX NSCLC
  TGI: > 100 µM
T-47D breast
  TGI: > 100 µM
M14 melanoma
  TGI: > 100 µM
OVCAR-8 ovarian
  TGI: > 100 µM
CAKI-1 renal
  TGI: > 100 µM
DU-145 prostate
  TGI: > 100 µM
MDA-MB-231 breast
  TGI: > 100 µM
TK-10 renal
  TGI: > 100 µM
SNB-75 CNS
  TGI: > 100 µM
CCRF-CEM leukemia
  TGI: > 100 µM
SW-620 colon
  TGI: > 100 µM
NCI-H226 lung
  TGI: > 100 µM
786-0 renal
  TGI: > 100 µM
KM12 colon
  TGI: > 100 µM
U251 CNS
  TGI: > 100 µM
MOLT-4 leukemia
  TGI: > 100 µM
COLO 205 colon
  TGI: > 100 µM
PC-3 prostate
  TGI: > 100 µM
SK-OV-3 ovarian
  TGI: > 100 µM
HL-60(TB) leukemia
  TGI: > 100 µM
OVCAR-3 ovarian
  TGI: > 100 µM
MDA-N
  TGI: > 100 µM
SK-MEL-28 melanoma
  TGI: > 100 µM
NCI/ADR-RES ovarian
  TGI: > 100 µM
IGROV1 ovarian
  TGI: > 100 µM
UACC-62 melanoma
  TGI: > 100 µM
SK-MEL-5 melanoma
  TGI: > 100 µM
SF-295 CNS
  TGI: > 100 µM
HCT-116 colon
  TGI: > 100 µM
HT29 colon
  TGI: > 100 µM
HCC-2998 colon
  TGI: > 100 µM
SNB-19 CNS
  TGI: > 100 µM
MCF7 breast
  TGI: > 100 µM
BT-549 breast
  TGI: > 100 µM
SF-268 CNS
  TGI: > 100 µM
SK-MEL-2 melanoma
  TGI: > 100 µM
ACHN renal
  TGI: > 100 µM
SN12C renal
  TGI: > 100 µM
UACC-257 melanoma
  TGI: > 100 µM
HCT-15 colon
  TGI: > 100 µM
A549 NSCLC
  TGI: > 100 µM
HS 578T breast
  TGI: > 100 µM
NCI-H522 lung
  TGI: > 100 µM
RPMI-8226 leukemia
  TGI: > 100 µM
MDA-MB-435
  TGI: > 100 µM
NCI-H460 lung
  TGI: > 100 µM

## NCCCCc1cc(O)c2c(c1O)C(=O)c1ccccc1C2=O
NCI-H23 lung
  TGI: 28.4 µM
MALME-3M melanoma
  TGI: 30 µM
HOP-92 NSCLC
  TGI: 31.1 µM
LOX IMVI melanoma
  TGI: 21.2 µM
HOP-62 NSCLC
  TGI: 21.3 µM
SF-539 CNS
  TGI: 21.8 µM
K-562 leukemia
  TGI: 17.3 µM
OVCAR-5 ovarian
  TGI: 28.5 µM
OVCAR-4 ovarian
  TGI: 35 µM
UO-31 renal
  TGI: 20.3 µM
EKVX NSCLC
  TGI: 33.5 µM
T-47D breast
  TGI: 43.3 µM
M14 melanoma
  TGI: 33.6 µM
OVCAR-8 ovarian
  TGI: 16.3 µM
CAKI-1 renal
  TGI: 27.2 µM
DU-145 prostate
  TGI: 26.8 µM
MDA-MB-231 breast
  TGI: 24.2 µM
TK-10 renal
  TGI: 34 µM
CCRF-CEM leukemia
  TGI: 14.4 µM
A498 renal
  TGI: 37.2 µM
SW-620 colon
  TGI: > 44.2 µM
NCI-H226 lung
  TGI: 19.2 µM
786-0 renal
  TGI: 19.6 µM
KM12 colon
  TGI: 24.2 µM
U251 CNS
  TGI: > 43 µM
SR leukemia
  TGI: 19.8 µM
MOLT-4 leukemia
  TGI: 10.1 µM
COLO 205 colon
  TGI: 10.4 µM
PC-3 prostate
  TGI: 22.8 µM
SK-OV-3 ovarian
  TGI: 29.1 µM
OVCAR-3 ovarian
  TGI: 19.4 µM
MDA-N
  TGI: 28.6 µM
SK-MEL-28 melanoma
  TGI: 33.6 µM
NCI/ADR-RES ovarian
  TGI: 30.5 µM
IGROV1 ovarian
  TGI: 22.2 µM
UACC-62 melanoma
  TGI: 32.6 µM
SK-MEL-5 melanoma
  TGI: 28.3 µM
SF-295 CNS
  TGI: 28.6 µM
HCT-116 colon
  TGI: 18.1 µM
HT29 colon
  TGI: 16.7 µM
HCC-2998 colon
  TGI: 28 µM
SNB-19 CNS
  TGI: 29.2 µM
MCF7 breast
  TGI: 27.4 µM
BT-549 breast
  TGI: 49.9 µM
SF-268 CNS
  TGI: 29.9 µM
SK-MEL-2 melanoma
  TGI: 32.4 µM
ACHN renal
  TGI: 25.4 µM
SN12C renal
  TGI: 23 µM
UACC-257 melanoma
  TGI: 33.4 µM
HCT-15 colon
  TGI: 25.5 µM
A549 NSCLC
  TGI: 16.9 µM
NCI-H522 lung
  TGI: 23.7 µM
RPMI-8226 leukemia
  TGI: 29.2 µM
MDA-MB-435
  TGI: 43.6 µM
NCI-H460 lung
  TGI: 26.6 µM
RXF 393 renal
  TGI: 27.9 µM
